Test results published in PubChem BioAssay (NCI).
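Results reflect a 48-hour exposure of cells in 96-well plates to compound at five concentrations. TGI: total growth inhibition.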

Tests used:
Experiment in all cases: growth of human tumour cells (NCI), 48 h
M14 melanoma = test system: M14 melanoma
MDA-MB-435 = test system: MDA-MB-435
SF-268 CNS = test system: SF-268 CNS
786-0 renal = test system: 786-0 renal
SF-539 CNS = test system: SF-539 CNS
K-562 leukemia = test system: K-562 leukemia
KM12 colon = test system: KM12 colon
HT29 colon = test system: HT29 colon
SK-MEL-5 melanoma = test system: SK-MEL-5 melanoma
SK-MEL-28 melanoma = test system: SK-MEL-28 melanoma
NCI/ADR-RES ovarian = test system: NCI/ADR-RES ovarian
SW-620 colon = test system: SW-620 colon
OVCAR-5 ovarian = test system: OVCAR-5 ovarian
UACC-257 melanoma = test system: UACC-257 melanoma
MOLT-4 leukemia = test system: MOLT-4 leukemia
U251 CNS = test system: U251 CNS
DU-145 prostate = test system: DU-145 prostate
HCT-15 colon = test system: HCT-15 colon
MDA-N = test system: MDA-N
SK-MEL-2 melanoma = test system: SK-MEL-2 melanoma
SN12C renal = test system: SN12C renal
A549 NSCLC = test system: A549 NSCLC
HS 578T breast = test system: HS 578T breast
SNB-19 CNS = test system: SNB-19 CNS
MDA-MB-231 breast = test system: MDA-MB-231 breast
HOP-92 NSCLC = test system: HOP-92 NSCLC
NCI-H23 lung = test system: NCI-H23 lung
HCT-116 colon = test system: HCT-116 colon
SF-295 CNS = test system: SF-295 CNS
LOX IMVI melanoma = test system: LOX IMVI melanoma
PC-3 prostate = test system: PC-3 prostate
RXF 393 renal = test system: RXF 393 renal
COLO 205 colon = test system: COLO 205 colon
NCI-H460 lung = test system: NCI-H460 lung
RPMI-8226 leukemia = test system: RPMI-8226 leukemia
UO-31 renal = test system: UO-31 renal
IGROV1 ovarian = test system: IGROV1 ovarian
ACHN renal = test system: ACHN renal
SK-OV-3 ovarian = test system: SK-OV-3 ovarian
UACC-62 melanoma = test system: UACC-62 melanoma
HOP-62 NSCLC = test system: HOP-62 NSCLC
CCRF-CEM leukemia = test system: CCRF-CEM leukemia
MCF7 breast = test system: MCF7 breast
OVCAR-3 ovarian = test system: OVCAR-3 ovarian
TK-10 renal = test system: TK-10 renal
OVCAR-8 ovarian = test system: OVCAR-8 ovarian
OVCAR-4 ovarian = test system: OVCAR-4 ovarian
T-47D breast = test system: T-47D breast
EKVX NSCLC = test system: EKVX NSCLC
MALME-3M melanoma = test system: MALME-3M melanoma
NCI-H226 lung = test system: NCI-H226 lung
HCC-2998 colon = test system: HCC-2998 colon
CAKI-1 renal = test system: CAKI-1 renal
HL-60(TB) leukemia = test system: HL-60(TB) leukemia
SR leukemia = test system: SR leukemia
A498 renal = test system: A498 renal
SNB-75 CNS = test system: SNB-75 CNS
BT-549 breast = test system: BT-549 breast
NCI-H522 lung = test system: NCI-H522 lung

Cc1[nH]n(-c2nc(-c3ccccc3)cc(=O)[nH]2)c(=O)c1CCO
TGI (M14 melanoma): > 100 µM | TGI (MDA-MB-435): > 100 µM | TGI (SF-268 CNS): > 100 µM | TGI (786-0 renal): > 100 µM | TGI (SF-539 CNS): > 100 µM | TGI (K-562 leukemia): > 100 µM | TGI (KM12 colon): > 100 µM | TGI (HT29 colon): > 100 µM | TGI (SK-MEL-5 melanoma): > 100 µM | TGI (SK-MEL-28 melanoma): > 100 µM | TGI (NCI/ADR-RES ovarian): > 100 µM | TGI (SW-620 colon): > 100 µM | TGI (OVCAR-5 ovarian): > 100 µM | TGI (UACC-257 melanoma): > 100 µM | TGI (MOLT-4 leukemia): > 100 µM | TGI (U251 CNS): > 100 µM | TGI (DU-145 prostate): > 100 µM | TGI (HCT-15 colon): > 100 µM | TGI (MDA-N): > 100000 nM | TGI (SK-MEL-2 melanoma): > 100 µM | TGI (SN12C renal): > 100 µM | TGI (A549 NSCLC): > 100 µM | TGI (HS 578T breast): > 100 µM | TGI (SNB-19 CNS): > 100 µM | TGI (MDA-MB-231 breast): > 100 µM | TGI (HOP-92 NSCLC): > 100 µM | TGI (NCI-H23 lung): > 100 µM | TGI (HCT-116 colon): > 100 µM | TGI (SF-295 CNS): > 100 µM | TGI (LOX IMVI melanoma): > 100 µM | TGI (PC-3 prostate): > 100 µM | TGI (RXF 393 renal): > 100 µM | TGI (COLO 205 colon): > 100 µM | TGI (NCI-H460 lung): > 100 µM | TGI (RPMI-8226 leukemia): > 100 µM | TGI (UO-31 renal): > 100 µM | TGI (IGROV1 ovarian): > 100 µM | TGI (ACHN renal): > 100 µM | TGI (SK-OV-3 ovarian): > 100 µM | TGI (UACC-62 melanoma): > 100 µM | TGI (HOP-62 NSCLC): > 100 µM | TGI (CCRF-CEM leukemia): > 100 µM | TGI (MCF7 breast): > 100 µM | TGI (OVCAR-3 ovarian): > 100 µM | TGI (TK-10 renal): > 100 µM | TGI (OVCAR-8 ovarian): > 100 µM | TGI (OVCAR-4 ovarian): > 100 µM | TGI (T-47D breast): > 100 µM | TGI (EKVX NSCLC): > 100 µM | TGI (MALME-3M melanoma): > 100 µM | TGI (NCI-H226 lung): > 100 µM | TGI (HCC-2998 colon): > 100 µM | TGI (CAKI-1 renal): > 100 µM | TGI (HL-60(TB) leukemia): > 100 µM

CC(NCCN(C)C)C1CCC2C3CCc4cc(O)ccc4C3CCC12C (centres undefined)
TGI (M14 melanoma): 3.09 µM | TGI (MDA-MB-435): 4.7 µM | TGI (SF-268 CNS): 17.5 µM | TGI (786-0 renal): 4.1 µM | TGI (SF-539 CNS): 9.52 µM | TGI (SR leukemia): 3.85 µM | TGI (K-562 leukemia): 4.81 µM | TGI (KM12 colon): 10.3 µM | TGI (HT29 colon): 8.45 µM | TGI (SK-MEL-5 melanoma): 3.29 µM | TGI (SK-MEL-28 melanoma): 5.29 µM | TGI (NCI/ADR-RES ovarian): 8.97 µM | TGI (SW-620 colon): 12.7 µM | TGI (A498 renal): 8.38 µM | TGI (OVCAR-5 ovarian): 18.3 µM | TGI (UACC-257 melanoma): 3.83 µM | TGI (MOLT-4 leukemia): 5.19 µM | TGI (U251 CNS): 4.35 µM | TGI (DU-145 prostate): 18.6 µM | TGI (SNB-75 CNS): 10.2 µM | TGI (HCT-15 colon): 9.49 µM | TGI (SK-MEL-2 melanoma): 3.79 µM | TGI (SN12C renal): 4.42 µM | TGI (A549 NSCLC): 13.6 µM | TGI (HS 578T breast): 18.1 µM | TGI (SNB-19 CNS): 13.2 µM | TGI (MDA-MB-231 breast): 4.42 µM | TGI (HOP-92 NSCLC): 13.1 µM | TGI (NCI-H23 lung): 16.5 µM | TGI (HCT-116 colon): 7.7 µM | TGI (SF-295 CNS): 6.72 µM | TGI (LOX IMVI melanoma): 4.75 µM | TGI (PC-3 prostate): 11.7 µM | TGI (RXF 393 renal): 3.69 µM | TGI (COLO 205 colon): 3.54 µM | TGI (NCI-H460 lung): 4.68 µM | TGI (RPMI-8226 leukemia): 7.35 µM | TGI (UO-31 renal): 3.76 µM | TGI (IGROV1 ovarian): 17.2 µM | TGI (BT-549 breast): 31.4 µM | TGI (ACHN renal): 3.99 µM | TGI (SK-OV-3 ovarian): 15.9 µM | TGI (UACC-62 melanoma): 3.45 µM | TGI (HOP-62 NSCLC): 8.7 µM | TGI (CCRF-CEM leukemia): 3.47 µM | TGI (MCF7 breast): 11.5 µM | TGI (OVCAR-3 ovarian): 4.37 µM | TGI (TK-10 renal): 6.63 µM | TGI (OVCAR-8 ovarian): 11 µM | TGI (OVCAR-4 ovarian): 9.55 µM | TGI (T-47D breast): 5.29 µM | TGI (EKVX NSCLC): 17.7 µM | TGI (MALME-3M melanoma): 3.73 µM | TGI (NCI-H226 lung): 34 µM | TGI (NCI-H522 lung): 10.6 µM | TGI (CAKI-1 renal): 4.32 µM | TGI (HL-60(TB) leukemia): 4.15 µM

Cc1cc(C)c2c(=N)c3ccccc3n(CCCCCCCCn3c4ccccc4c(=N)c4c(C)cc(C)nc43)c2n1
TGI (M14 melanoma): 3.09 µM | TGI (786-0 renal): 2.28 µM | TGI (K-562 leukemia): > 100 µM | TGI (KM12 colon): 1.42 µM | TGI (HT29 colon): 1.16 µM | TGI (SK-MEL-5 melanoma): 3.23 µM | TGI (SK-MEL-28 melanoma): 3.02 µM | TGI (A498 renal): 2.94 µM | TGI (OVCAR-5 ovarian): 3.69 µM | TGI (UACC-257 melanoma): 3.01 µM | TGI (DU-145 prostate): 3.07 µM | TGI (SNB-75 CNS): 2.18 µM | TGI (MDA-N): 2780 nM | TGI (SK-MEL-2 melanoma): 3.03 µM | TGI (SN12C renal): 2.94 µM | TGI (SNB-19 CNS): 1.85 µM | TGI (HOP-92 NSCLC): 2.87 µM | TGI (HCT-116 colon): 1.59 µM | TGI (LOX IMVI melanoma): 2.61 µM | TGI (PC-3 prostate): 2.86 µM | TGI (UO-31 renal): 2.81 µM | TGI (IGROV1 ovarian): 2.71 µM | TGI (BT-549 breast): 3.29 µM | TGI (ACHN renal): 2.91 µM | TGI (SK-OV-3 ovarian): 3.18 µM | TGI (OVCAR-3 ovarian): 3.27 µM | TGI (TK-10 renal): 4.72 µM | TGI (OVCAR-8 ovarian): 3.05 µM | TGI (T-47D breast): 3.23 µM | TGI (EKVX NSCLC): 2.91 µM | TGI (MALME-3M melanoma): 3.11 µM | TGI (NCI-H226 lung): 3.38 µM | TGI (CAKI-1 renal): 3.45 µM
